Assays:
[1] = molecular target: T1, Polyamine deacetylase HDAC10 (Homo sapiens) (UniProt Q969S8); assay: Inhibition of HDAC10 (unknown origin) assessed as residual activity at 1.23 x 10^-7M (reference value: 101.54%); details: dose 1.23 10^-7M
T1 sequence (whole entry): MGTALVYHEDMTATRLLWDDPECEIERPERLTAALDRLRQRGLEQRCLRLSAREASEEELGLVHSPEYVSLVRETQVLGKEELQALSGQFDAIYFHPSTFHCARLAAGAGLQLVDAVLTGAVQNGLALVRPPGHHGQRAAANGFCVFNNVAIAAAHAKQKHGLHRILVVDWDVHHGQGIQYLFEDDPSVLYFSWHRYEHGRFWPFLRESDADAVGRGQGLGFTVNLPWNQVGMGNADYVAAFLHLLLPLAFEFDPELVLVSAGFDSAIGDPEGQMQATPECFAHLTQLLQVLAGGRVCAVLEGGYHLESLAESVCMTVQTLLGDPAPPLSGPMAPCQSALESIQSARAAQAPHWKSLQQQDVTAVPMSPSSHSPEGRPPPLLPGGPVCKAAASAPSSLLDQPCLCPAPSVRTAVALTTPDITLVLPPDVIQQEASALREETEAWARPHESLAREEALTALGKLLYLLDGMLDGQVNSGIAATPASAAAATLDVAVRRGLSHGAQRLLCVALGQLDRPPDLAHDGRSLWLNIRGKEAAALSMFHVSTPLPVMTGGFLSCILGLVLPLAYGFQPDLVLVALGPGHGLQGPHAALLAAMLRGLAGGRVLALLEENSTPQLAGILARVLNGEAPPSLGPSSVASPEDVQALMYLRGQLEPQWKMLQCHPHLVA

Histone deacetylase 3 [2] = molecular target: T2, Histone deacetylase 3 (Homo sapiens, UniProt O15379); assay: Inhibition of HDAC3 (unknown origin) using p53 residues 379 to 382 [RHKK(Ac)] as fluorogenic substrate assessed as residual activity at 3.70 x 10^-7M (reference value: 103.08%); details: dose 3.7 10^-7M
Histone deacetylase 2 = Histone deacetylase 2 (Homo sapiens, UniProt Q92769); assay: Inhibition of HDAC2 (unknown origin)
[3] = molecular target: Histone deacetylase 9 (Homo sapiens) (UniProt Q9UKV0); assay: Inhibition of HDAC9 (unknown origin) assessed as residual activity at 3.33 x 10^-6M (reference value: 97.55%); details: dose 3.33 10^-6M
[4] = molecular target: Histone deacetylase 4 (Homo sapiens) (UniProt P56524); assay: Inhibition of HDAC4 (unknown origin) assessed as residual activity at 1.52 x 10^-9M (reference value: 98.90%); details: dose 1.52 10^-9M
Histone deacetylase 1 [5] = molecular target: T3, Histone deacetylase 1 (Homo sapiens, UniProt Q13547); assay: Inhibition of HDAC1 (unknown origin) using p53 residues 379 to 382 [RHKK(Ac)] as fluorogenic substrate assessed as residual activity at 1 x 10^-5M (reference value: 98.06%); details: dose 1.0 10^-5M
Histone deacetylase 3 [6] = molecular target: T2, Histone deacetylase 3; assay: Inhibition of HDAC3 (unknown origin) using p53 residues 379 to 382 [RHKK(Ac)] as fluorogenic substrate
[7] = molecular target: Histone deacetylase 9 (Homo sapiens) (UniProt Q9UKV0); assay: Inhibition of HDAC9 (unknown origin) assessed as residual activity at 4.12 x 10^-8M (reference value: 97.55%); details: dose 4.12 10^-8M
[8] = molecular target: Histone deacetylase 9 (Homo sapiens) (UniProt Q9UKV0); assay: Inhibition of HDAC9 (unknown origin) assessed as residual activity at 1 x 10^-5M (reference value: 97.55%); details: dose 1.0 10^-5M
[9] = molecular target: T4, Histone deacetylase 7 (Homo sapiens) (UniProt Q8WUI4); assay: Inhibition of HDAC7 (unknown origin) assessed as residual activity at 5.08 x 10^-10M (reference value: 102.66%); details: dose 5.08 10^-10M
T4 sequence (whole entry): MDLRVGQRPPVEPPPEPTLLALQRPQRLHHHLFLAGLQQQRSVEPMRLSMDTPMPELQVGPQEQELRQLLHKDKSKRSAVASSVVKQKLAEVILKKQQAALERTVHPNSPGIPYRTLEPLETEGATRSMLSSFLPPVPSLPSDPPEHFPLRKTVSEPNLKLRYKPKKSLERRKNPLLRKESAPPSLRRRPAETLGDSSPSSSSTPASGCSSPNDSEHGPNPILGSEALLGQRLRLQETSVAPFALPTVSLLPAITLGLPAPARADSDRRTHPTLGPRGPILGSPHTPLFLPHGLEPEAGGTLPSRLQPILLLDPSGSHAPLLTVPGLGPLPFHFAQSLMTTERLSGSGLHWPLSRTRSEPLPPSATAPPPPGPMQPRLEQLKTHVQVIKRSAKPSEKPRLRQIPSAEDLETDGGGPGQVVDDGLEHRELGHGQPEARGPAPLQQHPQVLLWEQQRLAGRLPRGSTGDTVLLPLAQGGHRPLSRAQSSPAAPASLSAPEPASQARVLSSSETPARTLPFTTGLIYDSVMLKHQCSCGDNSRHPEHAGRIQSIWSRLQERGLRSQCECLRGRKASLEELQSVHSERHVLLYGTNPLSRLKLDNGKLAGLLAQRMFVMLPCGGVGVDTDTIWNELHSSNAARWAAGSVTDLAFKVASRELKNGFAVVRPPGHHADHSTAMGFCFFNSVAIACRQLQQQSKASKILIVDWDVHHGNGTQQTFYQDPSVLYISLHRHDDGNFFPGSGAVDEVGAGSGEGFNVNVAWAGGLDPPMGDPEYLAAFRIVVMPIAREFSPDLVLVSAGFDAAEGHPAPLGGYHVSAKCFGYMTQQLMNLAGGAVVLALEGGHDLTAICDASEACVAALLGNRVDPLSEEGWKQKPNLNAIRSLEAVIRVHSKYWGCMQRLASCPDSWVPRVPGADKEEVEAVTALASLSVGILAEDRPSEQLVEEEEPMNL

Histone deacetylase 1 [10] = molecular target: T3, Histone deacetylase 1; assay: Inhibition of HDAC1 (unknown origin) using p53 residues 379 to 382 [RHKK(Ac)] as fluorogenic substrate assessed as residual activity at 1.11 x 10^-6M (reference value: 98.06%); details: dose 1.11 10^-6M
Histone deacetylase 1 [11] = molecular target: T3, Histone deacetylase 1; assay: Inhibition of HDAC1 (unknown origin) using p53 residues 379 to 382 [RHKK(Ac)] as fluorogenic substrate assessed as residual activity at 3.70 x 10^-7M (reference value: 98.06%); details: dose 3.7 10^-7M
Histone deacetylase 1 [12] = molecular target: T3, Histone deacetylase 1; assay: Inhibition of HDAC1 (unknown origin) using p53 residues 379 to 382 [RHKK(Ac)] as fluorogenic substrate assessed as residual activity at 4.12 x 10^-8M (reference value: 98.06%); details: dose 4.12 10^-8M
[13] = molecular target: T4, Histone deacetylase 7 (Homo sapiens); assay: Inhibition of HDAC7 (unknown origin) assessed as residual activity at 1.52 x 10^-9M (reference value: 102.66%); details: dose 1.52 10^-9M
[14] = molecular target: T1, Polyamine deacetylase HDAC10 (Homo sapiens); assay: Inhibition of HDAC10 (unknown origin) assessed as residual activity at 5.08 x 10^-10M (reference value: 101.54%); details: dose 5.08 10^-10M

T3 sequence (Q13547 whole entry, the tested form may be a part): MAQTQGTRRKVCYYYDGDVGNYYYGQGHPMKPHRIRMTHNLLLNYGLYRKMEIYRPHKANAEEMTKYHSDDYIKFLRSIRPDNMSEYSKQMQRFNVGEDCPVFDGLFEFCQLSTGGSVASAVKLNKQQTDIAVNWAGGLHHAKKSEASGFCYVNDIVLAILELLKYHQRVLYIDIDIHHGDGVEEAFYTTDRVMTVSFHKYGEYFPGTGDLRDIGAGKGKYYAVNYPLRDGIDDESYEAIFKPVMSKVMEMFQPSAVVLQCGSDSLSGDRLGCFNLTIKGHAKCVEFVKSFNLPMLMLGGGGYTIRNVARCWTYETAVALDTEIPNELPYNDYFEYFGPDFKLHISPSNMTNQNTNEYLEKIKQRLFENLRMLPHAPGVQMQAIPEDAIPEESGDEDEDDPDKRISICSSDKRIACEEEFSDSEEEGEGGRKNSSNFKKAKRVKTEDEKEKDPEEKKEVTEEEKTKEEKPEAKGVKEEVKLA
Histone deacetylase 9 (Homo sapiens), sequence (Q9UKV0 whole entry): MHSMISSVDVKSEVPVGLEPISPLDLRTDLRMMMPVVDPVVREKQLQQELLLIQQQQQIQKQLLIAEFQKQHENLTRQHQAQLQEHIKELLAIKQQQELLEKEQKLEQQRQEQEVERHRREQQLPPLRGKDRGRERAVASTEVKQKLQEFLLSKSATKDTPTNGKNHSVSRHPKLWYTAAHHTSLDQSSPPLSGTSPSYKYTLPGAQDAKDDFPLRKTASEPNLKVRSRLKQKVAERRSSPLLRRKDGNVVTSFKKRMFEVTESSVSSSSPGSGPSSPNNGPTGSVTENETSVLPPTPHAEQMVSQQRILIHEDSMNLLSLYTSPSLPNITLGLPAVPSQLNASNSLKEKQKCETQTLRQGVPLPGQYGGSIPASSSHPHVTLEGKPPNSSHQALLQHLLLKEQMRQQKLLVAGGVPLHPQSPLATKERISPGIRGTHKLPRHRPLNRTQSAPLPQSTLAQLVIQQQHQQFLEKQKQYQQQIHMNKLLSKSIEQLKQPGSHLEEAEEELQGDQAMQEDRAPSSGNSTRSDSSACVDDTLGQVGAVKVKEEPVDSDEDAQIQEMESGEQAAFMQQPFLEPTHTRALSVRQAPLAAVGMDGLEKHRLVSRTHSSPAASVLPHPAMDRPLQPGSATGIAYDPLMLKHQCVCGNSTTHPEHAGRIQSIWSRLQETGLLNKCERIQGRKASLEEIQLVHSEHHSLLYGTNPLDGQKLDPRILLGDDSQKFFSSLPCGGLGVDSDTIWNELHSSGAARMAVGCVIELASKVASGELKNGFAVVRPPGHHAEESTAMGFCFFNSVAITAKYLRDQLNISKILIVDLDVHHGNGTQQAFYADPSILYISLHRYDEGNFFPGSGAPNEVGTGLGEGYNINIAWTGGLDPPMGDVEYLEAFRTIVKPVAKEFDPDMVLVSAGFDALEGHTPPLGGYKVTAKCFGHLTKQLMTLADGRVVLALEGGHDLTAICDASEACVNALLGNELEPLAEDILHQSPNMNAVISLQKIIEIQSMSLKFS
T2 sequence (O15379 whole entry, the tested form may be a part): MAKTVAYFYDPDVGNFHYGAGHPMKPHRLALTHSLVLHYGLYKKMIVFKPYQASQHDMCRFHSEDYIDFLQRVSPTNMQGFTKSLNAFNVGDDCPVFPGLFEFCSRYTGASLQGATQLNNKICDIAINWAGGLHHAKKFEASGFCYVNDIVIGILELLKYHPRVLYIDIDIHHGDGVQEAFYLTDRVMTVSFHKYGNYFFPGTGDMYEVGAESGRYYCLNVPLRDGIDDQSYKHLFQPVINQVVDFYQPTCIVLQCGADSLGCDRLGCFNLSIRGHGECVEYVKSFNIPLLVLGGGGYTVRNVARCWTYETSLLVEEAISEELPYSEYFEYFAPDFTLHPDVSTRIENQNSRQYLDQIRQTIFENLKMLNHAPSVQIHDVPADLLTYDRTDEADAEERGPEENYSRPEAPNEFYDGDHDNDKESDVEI
Histone deacetylase 4 (Homo sapiens), sequence (P56524 whole entry, the tested form may be a part): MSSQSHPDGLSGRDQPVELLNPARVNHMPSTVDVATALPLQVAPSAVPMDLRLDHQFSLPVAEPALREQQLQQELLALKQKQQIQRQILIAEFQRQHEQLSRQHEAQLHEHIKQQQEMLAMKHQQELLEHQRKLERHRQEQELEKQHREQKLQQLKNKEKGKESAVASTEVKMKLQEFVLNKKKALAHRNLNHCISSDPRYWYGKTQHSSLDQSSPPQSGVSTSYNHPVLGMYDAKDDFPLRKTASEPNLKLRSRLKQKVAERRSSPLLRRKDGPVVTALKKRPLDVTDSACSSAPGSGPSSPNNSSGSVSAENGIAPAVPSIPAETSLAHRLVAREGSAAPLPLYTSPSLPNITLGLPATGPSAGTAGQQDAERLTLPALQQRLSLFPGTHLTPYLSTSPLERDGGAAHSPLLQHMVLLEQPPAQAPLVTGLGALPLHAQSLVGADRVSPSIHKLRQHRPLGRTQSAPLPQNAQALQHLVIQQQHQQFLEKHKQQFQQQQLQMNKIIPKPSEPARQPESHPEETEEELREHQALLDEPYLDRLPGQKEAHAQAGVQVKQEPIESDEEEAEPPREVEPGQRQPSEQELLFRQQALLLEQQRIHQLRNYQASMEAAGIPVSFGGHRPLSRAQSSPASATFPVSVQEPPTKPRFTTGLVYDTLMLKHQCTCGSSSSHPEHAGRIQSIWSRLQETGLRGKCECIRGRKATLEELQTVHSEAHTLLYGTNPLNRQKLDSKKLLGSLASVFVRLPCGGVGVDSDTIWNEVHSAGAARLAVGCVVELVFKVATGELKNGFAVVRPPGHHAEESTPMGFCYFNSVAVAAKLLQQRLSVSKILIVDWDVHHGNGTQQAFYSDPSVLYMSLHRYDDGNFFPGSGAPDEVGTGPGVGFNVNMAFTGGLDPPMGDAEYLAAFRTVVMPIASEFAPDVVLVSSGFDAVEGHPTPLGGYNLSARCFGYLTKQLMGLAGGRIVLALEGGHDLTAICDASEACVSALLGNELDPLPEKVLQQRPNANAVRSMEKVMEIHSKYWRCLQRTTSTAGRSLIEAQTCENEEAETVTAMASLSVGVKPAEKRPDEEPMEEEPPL
Histone deacetylase 2, sequence (Q92769 whole entry): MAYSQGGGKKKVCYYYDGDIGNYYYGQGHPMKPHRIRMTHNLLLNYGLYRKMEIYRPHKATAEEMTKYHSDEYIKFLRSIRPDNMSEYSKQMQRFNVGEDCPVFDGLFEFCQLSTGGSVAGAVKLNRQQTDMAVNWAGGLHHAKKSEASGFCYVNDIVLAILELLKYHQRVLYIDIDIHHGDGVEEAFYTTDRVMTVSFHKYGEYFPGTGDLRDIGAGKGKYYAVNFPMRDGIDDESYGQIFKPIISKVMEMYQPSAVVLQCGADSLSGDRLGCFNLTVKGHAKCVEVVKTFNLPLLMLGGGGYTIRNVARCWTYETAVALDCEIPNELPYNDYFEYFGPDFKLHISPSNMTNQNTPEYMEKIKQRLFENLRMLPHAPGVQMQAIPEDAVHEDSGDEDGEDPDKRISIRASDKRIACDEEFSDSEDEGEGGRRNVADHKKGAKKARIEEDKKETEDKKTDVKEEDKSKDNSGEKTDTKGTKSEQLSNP

NC(=O)c1cccc2[nH]c(-c3ccc(NCc4ccc(C(=O)Nc5ccccc5N)cc4)cc3)nc12 gave an Activity [1] of 101%, an Activity (Histone deacetylase 3 [2]) of 54.9% and an IC50 (Histone deacetylase 2) of 147 nM. For the same compound, the Activity [3] was 81%, the Activity [4] was 94.7% and the Activity (Histone deacetylase 1 [5]) was 12.3%. For the same compound, the IC50 (Histone deacetylase 3 [6]) was 393 nM, the Activity [7] was 102% and the Activity [8] was 100%. For the same compound, the Activity [9] was 93.4%, the Activity (Histone deacetylase 1 [10]) was 11% and the Activity (Histone deacetylase 1 [11]) was 16.9%. The Activity (Histone deacetylase 1 [12]) was 51.3%, the Activity [13] was 103% and the Activity [14] was 101%.

— ChEMBL document CHEMBL5550160, “Leveraging a rationally designed veliparib-based anilide eliciting anti-leukemic effects for the design of pH-responsive polymer nanoformulation” (Eur J Med Chem, 2024)
